Data taken from the METLIN SMRT retention time set (Domingo-Almenara et al. 2019).

Experiment: gradient 5% acetonitrile 3 min, to 50% in 2 min, to 85% in 15 min, held 3 min, 100 µL/min
Details: column: Zorbax Extend-C18 2.1 x 50 mm; eluents: water / acetonitrile, 0.1% formic acid
Summary of the method: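 Retention time was recorded from adduct peaks, which were picked computationally and each inspected manually. Pure standards ran in mixtures of ~100 molecules on HPLC coupled to a quadrupole time-of-flight mass spectrometer, in positive and negative ionization mode, through a Zorbax Extend-C18 column (2.1 × 50 mm, 1.8 μm) at 100 μL/min. Eluents were water and acetonitrile, each with 0.1% formic acid.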

SMILES | RP-LC retention time
O=C(Cn1ccn(-c2ccc3c(c2)OCCO3)c(=O)c1=O)Nc1ccccc1F | 655 s
COc1ccc2c(c1)C1(CCN(S(=O)(=O)c3ccccc3F)C1)C(=O)N2 (stereo not drawn) | 808 s
O=C(Nc1ccc(C2(C(=O)N3CCN(c4ccc(F)cc4)CC3)CCC2)cc1)C1CC1 | 922 s
O=C(NC1CCCCC1)NC1CCN(C(=O)C2CC2)C1 (stereo not drawn) | 663 s
CN(C)c1nn(CC(=O)Nc2ccc(F)c(Cl)c2)c(=O)c2ccccc12 | 928 s
O=C(Nc1ccccc1)N1CCc2nc(-c3ccccc3)ncc2C1 | 859 s
O=C(CN1CC=C(c2cnn(-c3ccccc3)c2)CC1)N1CCOCC1 | 604 s
Cc1cccc(-c2ncccc2CNS(=O)(=O)Cc2cccc(F)c2)c1 | 774 s
Cc1nnc(C(C)C)n1C1C[C@H]2CC[C@@H](C1)N2CC[C@H](NC(=O)C1CCC(F)(F)CC1)c1ccccc1 (stereo partly drawn) | 666 s
COc1ccccc1-c1nnc(Nc2nc3ccc(SC)cc3s2)o1 | 830 s
O=C(CCc1c(-c2ccc(Br)cc2)nc2ccccn12)NCc1cccc(F)c1 | 677 s
c1ccc(-c2csc(Nc3ccccn3)n2)cc1 | 860 s
Cc1ccccc1CNC(=O)C1(C)CCCN(C(=O)NCCc2ccccc2)C1 (stereo not drawn) | 897 s
CN(Cc1ccccc1)C(=O)C1CCCN(c2nnc(N3CCCC3=O)s2)C1 (stereo not drawn) | 718 s
NCCSSCc1ccccc1CSSCCN | 567 s
CCC(C)NC(=O)c1ccc(-c2ccc(N3CCSCC3)nc2)cc1 (stereo not drawn) | 711 s
CCOc1ccccc1NS(=O)(=O)c1cn(CC(C)C)c2ncccc12 | 1030 s
COc1cccc(S(=O)(=O)NCc2cccnc2-c2cccc(C)c2)c1 | 718 s
CSCC[C@H](NC(=O)COc1cc(C)cc2oc(=O)c3c(c12)CCC3)C(=O)O | 769 s
O=C(NCc1cccnc1)c1nnc(-c2ccc(S(=O)(=O)N3CCCCC3)cc2)o1 | 669 s
O=C(CC1CCCC1)N1[C@H]2CC[C@@H]1c1cnc(-c3ccc(F)cc3)nc1C2 | 1060 s
Fc1cccc(-c2noc(Cc3nc(-c4ccccc4Cl)cs3)n2)c1 | 1260 s

SMILES | RP-LC retention time
COc1ccc(-c2csc(NC(=O)Cn3c(=O)oc4ccccc43)n2)cc1 | 933 s
COc1ccc(C2C(C(=O)NCc3ccccc3OC)c3cc(OC)c(OC)cc3C(=O)N2C)cc1 (stereo not drawn) | 802 s
O=C(Nc1ccc(F)cc1)C1CCCN(C(=O)c2ccc(F)c(F)c2)C1 (stereo not drawn) | 860 s
O=C(CC1CCCC1)Nc1nc(-c2cccc3ccccc23)cs1 | 1220 s
Cn1cc(S(=O)(=O)Nc2ccc(F)c(F)c2)c2cccnc21 | 790 s
COc1ccc(Nc2c(-c3ccc(C(=O)O)cc3)nc3cnccn23)cc1OC | 663 s
CN(C)c1ccc(CNC(=O)C2CCN(S(=O)(=O)c3ccc4c(c3)CCCC(=O)N4)CC2)cc1 | 607 s
O=C(Nc1ccc2nncn2c1)Nc1ccccc1Cl | 718 s
CCN(CC)S(=O)(=O)c1ccc2c(c1)CC(C(=O)NC1CCCC1)N2C(C)=O (stereo not drawn) | 855 s
Cn1c(-c2ccccc2)nn(CCNS(=O)(=O)c2ccc(Cl)s2)c1=O | 748 s
CCCNC(=O)N(C1CCOCC1)C1CCN(C(=O)Nc2c(F)cccc2F)CC1 | 685 s
O=C(c1cc2c(s1)CCC(C(=O)N1CCN(c3ccccn3)CC1)C2)N1CCCC1 (stereo not drawn) | 600 s
CCNC(=O)c1[nH]c2ccccc2c1N1CCCC1=O | 657 s
O=C(N[C@H]1C[C@@H]2C[C@H]1CN2C(=O)Nc1ccc2c(c1)OCO2)c1cccs1 | 623 s
O=C1CCCc2cc(S(=O)(=O)N3CCC(C(=O)Nc4cccc(F)c4)CC3)ccc2N1 | 770 s
CCCn1cc(S(=O)(=O)NCc2cccc(F)c2)c2cccnc21 | 936 s
COc1ccc(OC)c(NC(=O)C2C(=O)NC3(C)CC2c2ccccc2O3)c1 (stereo not drawn) | 875 s
COc1cc(NC(=O)C2CCN(C(=O)C3Sc4ccccc4NC3=O)CC2)cc(OC)c1OC (stereo not drawn) | 707 s
O=C(Cn1c(=O)n(-c2ccccc2)c2ncccc21)NC1CCCCCC1 | 845 s
CC(C)CNC(=O)Nc1ccc2c(c1)CCN2S(C)(=O)=O | 733 s
O=C(NCc1c(F)cccc1F)C(=O)Nc1ccccc1Cl | 971 s

Results, then the compound that gave them:

RP-LC retention time | SMILES
897 s | Cc1ccc(N(C)C(=O)C2CCCN(c3ncnc4c3nc3n4CCCCC3)C2)cc1C (stereo not drawn)
1190 s | CCc1cccc(NC(=O)Cn2nc3cc(C)nc(Nc4ccc(F)c(C)c4)n3c2=O)c1
883 s | O=C(Nc1ccc(F)cc1F)c1noc2c1CCCC2
739 s | CCc1cc(C(=O)NCC2CCCO2)nc2cc(-c3ccccn3)nn12 (stereo not drawn)
690 s | Cc1oc(-c2cccc(Cl)c2)nc1CN1CCN(C(=O)NC2CCCC2)CC1
634 s | CC1CCN(CCNC(=O)c2nnc(-c3ccc(S(=O)(=O)N4CCCC4)cc3)o2)CC1
725 s | O=C1COc2cc(S(=O)(=O)N3CCCC3C(=O)NCc3ccc4c(c3)OCO4)c(Cl)cc2N1 (stereo not drawn)
843 s | O=C(NCCc1cccs1)c1cc2n(n1)CCCN(Cc1cccc(F)c1)C2=O
794 s | COc1ccc(-c2noc(-c3cc(N4CCN(C)CC4)nc4ccccc34)n2)cc1
708 s | COc1ccc(NC(=O)N2CCC(n3c(-c4ccco4)nc4cccnc43)C2)cc1 (stereo not drawn)
796 s | COc1ccc(-c2noc(-c3cn(C)c4ccc(C)cc4c3=O)n2)cc1OC
572 s | Cc1cc(NC(=O)C(=O)NCC(c2cn(C)c3ccccc23)N(C)C)no1 (stereo not drawn)
724 s | COc1ccccc1CN1C[C@@H]2C(=O)N(Cc3ccc4c(c3)OCO4)C(=O)[C@@H]2C1
886 s | CCOc1ccc2nc(Nc3ncc4c(n3)CC(c3ccc(C)cc3)CC4=O)nc(C)c2c1 (stereo not drawn)
961 s | COc1ccc(-c2noc(C3CCCN3C(=O)c3ccc(N(C)C)cc3)n2)cc1 (stereo not drawn)
620 s | CCCNC(=O)CN1CCN(C(=O)c2sc3ncccc3c2-n2cccc2)CC1
1090 s | CCCn1c(=O)c(N2CCC(NC(=O)Nc3ccc(Cl)cc3)CC2)nc2ccccc21
971 s | COc1ccc(-c2nc(C3CC(=O)N(c4ccccc4)C3)no2)cc1 (stereo not drawn)
883 s | O=S(=O)(NCCc1noc(-c2ccccc2)n1)c1ccc2c(c1)OCCO2
609 s | CCOC(=O)c1ncn(Cc2ccc3c(c2)OCO3)c1N
934 s | Cc1ccc(NC(=O)N(C)CCc2noc(COc3ccccc3)n2)c(C)c1
744 s | CCOc1ccc2nc(NC(=O)COc3nccc(C)n3)sc2c1
1220 s | CCCOc1ccc(-c2noc(Cc3nc(-c4ccc(OC)c(OC)c4)cs3)n2)cc1

RP-LC retention time | SMILES
914 s | O=C(NCCc1ccccc1)N1CCC(c2noc(-c3ccccc3)n2)C1 (stereo not drawn)
630 s | O=C(Cc1nnc(-c2cccc(F)c2)o1)N1CCCCC1
739 s | CCOC(=O)c1noc2nc(C)nc(NCCCN3CCN(c4cccc(C)c4)C(C)C3)c12 (stereo not drawn)
759 s | COc1cc(OC)cc(C(=O)N(C)CCc2noc(-c3ccc(C(=O)N4CCCC4)cc3)n2)c1
681 s | CCOC(=O)c1cnc(Nc2nc(C)c3cc(OC)ccc3n2)nc1C
982 s | CCOc1ccc(N2CC(c3nc(-c4ccc5c(c4)OCO5)no3)CC2=O)cc1 (stereo not drawn)
589 s | CN1C(=O)c2cc(C(=O)NCCCN3CCCC3)nn2CC1(C)C(=O)NCc1ccccc1 (stereo not drawn)
604 s | O=C(CCc1nnn2c1CN(C(=O)c1ccccc1)CC2)NC1CC1
899 s | CCc1cccc(NC(=O)Cn2nc3cc(C)nc(-c4ccccc4)n3c2=O)c1
1240 s | Cc1cc(S(=O)(=O)N2CCCC2c2nc(-c3ccc(Cl)cc3)no2)ccc1F (stereo not drawn)
637 s | CCOC(=O)N1CCN(/C=C2\Oc3c(ccc(O)c3C)C2=O)CC1
1270 s | CSc1ccc(-c2noc(Cn3cnc4c(cnn4-c4ccc(C)c(Cl)c4)c3=O)n2)cc1
542 s | CCC(CC)CN1CCC(n2c(C)cnc2-c2ccncc2)C1 (stereo not drawn)
596 s | Cn1cccc1C(=O)C(=O)N1CCN(Cc2ccc3c(c2)OCO3)CC1
736 s | O=C(Cn1c(=O)c2cc(C3CC3)nn2c2ncccc21)Nc1ccc2c(c1)OCCO2
722 s | Cc1cc(C(=O)Nc2nnc(Cc3ccc4c(c3)OCO4)o2)c(C)o1
615 s | Cc1nn(C(C)C(=O)NCCCN2CCOCC2)c(=O)c2nn(-c3ccccc3)c(C)c12 (stereo not drawn)
663 s | COc1cccc(C(O)CN2CCN(c3cccc(C)c3)CC2)c1 (stereo not drawn)
891 s | CCOC(=O)Cc1csc(NC(=O)Cc2cc(-c3cc4ccccc4o3)on2)n1
818 s | CC1=C(c2ccc(C)cc2)S(=O)(=O)N=C1N1CCCN(C(=O)C2CCC2)CC1
784 s | COc1ccc(-c2nc3cnccn3c2Nc2c(C)cccc2C)cc1OC
658 s | CCOc1ccc(S(=O)(=O)N2CCC(C(=O)NCc3ccccn3)CC2)cc1
